This test deals with 521955-158-R2-J5-PDC complex spheroid growth. Briefly: Anticancer human tumor 521955-158-R2-J5-PDC patient-derived pancreatic carcinoma cell line growth inhibition [AhR]. The settings on record: for viability, T/C: stronger effect = lower value. In short, it runs like this: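 Spheroids combined tumor cells with HUVEC endothelial cells and human MSCs as stroma. AhR antagonists were paired with standard or investigational drugs, each dosed in half-log steps down from near clinical Cmax, or from 10 microM where Cmax was unknown.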

Where “and” joins values, the source holds several entries; their conditions need not be identical. Equal entries are not always repeated.
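Wherever viability, T/C is given: spheroids mix tumor cells with HUVEC endothelium and human MSC stroma; luminescence taken as viability surrogate after a week of drug exposure.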

As a reminder, the viability, T/C is the ratio of treated to control. By IC50 is commonly meant the midpoint of a concentration-inhibition curve. Take `NS(=O)(=O)OCC1CC(n2ccc3c(NC4CCc5ccccc54)ncnc32)CC1O` (configuration not stated): the viability, T/C was 86.2% and 98.4% and 88.1% (compound 0.0316 µM); 99.3% and 98.1% and 95.9% (compound 0.1 µM); 83.6% and 87.9% and 66% (compound 0.316 µM); 54.8% and 54.6% and 36.6% (compound 1 µM); 36.5% and 32.9% and 19.3% (compound 3.16 µM); 30.5% and 21% and 16.8% (compound 10 µM). In addition, where the note is “curve of compound”, the IC50 is 1.33 µM and 0.598 µM.
On to `CCN(c1cc(-c2ccc(CN3CCOCC3)cc2)cc(C(=O)NCc2c(C)cc(C)[nH]c2=O)c1C)C1CCOCC1` + CC(CO)NC(=O)c1cc(-c2ccc(Cl)cc2)nn(-c2cnn(C)c2)c1=O, for which the IC50 (curve of first compound, second compound 0.1 µM) was greater than 3 µM; the IC50 (curve of first compound, second compound 0.316 µM) was greater than 3 µM; the IC50 (curve of first compound, second compound 1 µM) is greater than 3 µM; the IC50 (curve of first compound, second compound 3.16 µM) is greater than 3 µM; the half-maximal inhibitory concentration (IC50) (curve of first compound, second compound 10 µM) is greater than 3 µM. The viability, T/C runs as follows: (second compound 0.1 µM, first compound 0.00949 µM) 121%; (second compound 0.1 µM, first compound 0.03 µM) 110%; (second compound 0.1 µM, first compound 0.0949 µM) 102%; (second compound 0.1 µM, first compound 0.3 µM) 80.8%; (second compound 0.1 µM, first compound 0.949 µM) 81.1%; (second compound 0.1 µM, first compound 3 µM) 102%. Moreover, the viability, T/C (second compound 0.316 µM, first compound 0.00949 µM) is 103%; the viability, T/C (second compound 0.316 µM, first compound 0.03 µM) was 103%; the viability, T/C (second compound 0.316 µM, first compound 0.0949 µM) is 97.4%; the viability, T/C (second compound 0.316 µM, first compound 0.3 µM) was 101%; the viability, T/C (second compound 0.316 µM, first compound 0.949 µM) is 87.6%; the viability, T/C (second compound 0.316 µM, first compound 3 µM) was 86.5%. Further, the viability, T/C is 105% (second compound 1 µM, first compound 0.00949 µM); 93.7% (second compound 1 µM, first compound 0.03 µM); 129% (second compound 1 µM, first compound 0.0949 µM); 94.5% (second compound 1 µM, first compound 0.3 µM); 72.5% (second compound 1 µM, first compound 0.949 µM); 82.6% (second compound 1 µM, first compound 3 µM). For the same compound, the viability, T/C runs as follows: (second compound 3.16 µM, first compound 0.00949 µM) 90.6%; (second compound 3.16 µM, first compound 0.03 µM) 79.3%; (second compound 3.16 µM, first compound 0.0949 µM) 99.1%; (second compound 3.16 µM, first compound 0.3 µM) 86.7%; (second compound 3.16 µM, first compound 0.949 µM) 74%; (second compound 3.16 µM, first compound 3 µM) 91%. Besides, the viability, T/C (second compound 10 µM, first compound 0.00949 µM) is 91%; the viability, T/C (second compound 10 µM, first compound 0.03 µM) was 96.8%; the viability, T/C (second compound 10 µM, first compound 0.0949 µM) is 84.9%; the viability, T/C (second compound 10 µM, first compound 0.3 µM) was 77.4%; the viability, T/C (second compound 10 µM, first compound 0.949 µM) was 74.4%; the viability, T/C (second compound 10 µM, first compound 3 µM) was 60.7%.

The values are drawn from PubChem BioAssay AID1918998 (Molecular Pharmacology Branch, DTP, NCI, 2023).
